Source: patent US20080214563A1, “Benzimidazole Thiophene Compounds As Plk Modulators” (priority 2005, published 2008)

Tests used:
[1] = biological target: T1, PLK1 kinase domain (Homo sapiens, UniProt P53350); test: Assay for Inhibition of PLK1 (33P SPA kinase assay); format: biochemical; details: 2 nM PLK1 kinase domain, 1 μM ATP; read-out: PLK1 pIC50 (converted)
T1 construct: made in house; host or cells: baculovirus infected T. ni cells
Description: All procedures were performed at 4° C. Cells were lysed in 50 mM HEPES, 200 mM NaCl, 50 mM imidazole, 5% glycerol; pH 7.5. The homogenate was centrifuged at 14K rpm in a SLA-1500 rotor for 1 h and the supernatant filtered through a 1.2 micron filter. The supernatant was loaded onto a Nickel chelating Sepharose (Amersham Pharmacia) column and washed with lysis buffer. Protein was eluted using 20%, 30% and 100% buffer B steps where buffer B is 50 mM HEPES, 200 mM NaCl, 300 mM imidazole, 5% glycerol; pH 7.5. Fractions containing PLK were determined by SDS-PAGE. Fractions containing PLK were diluted five-fold with 50 mM HEPES, 1 mM DTT, 5% glycerol; pH 7.5, then loaded on an SP Sepharose (Amersham Pharmacia) column. After washing the column with 50 mM HEPES, 1 mM DTT, 5% glycerol; pH 7.5, PLK was step eluted with 50 mM HEPES, 1 mM DTT, 500 mM NaCl; 5% glycerol; pH 7.5. PLK was concentrated using a 10 kDa molecular weight cutoff membrane and then loaded onto a Superdex 200 gel filtration (Amersham Pharmacia) column equilibrated in 25 mM HEPES, 1 mM DTT, 500 mM NaCl, 5% glycerol; pH 7.5. Fractions containing PLK were determined by SDS-PAGE. PLK was pooled, aliquoted and stored at −80° C. Samples were quality controlled using mass spectrometry, N-terminal sequencing and amino acid analysis.
B. Enzyme activity +/− inhibitors was determined as follows:
All measurements were obtained under conditions where signal production increased linearly with time and enzyme. Test compounds were added to white 384-well assay plates (0.1 μL for 10 μL and some 20 μl assays, 1 μL for some 20 μL assays) at variable known concentrations in 100% DMSO. DMSO (1-5% final, as appropriate) and EDTA (65 mM in reaction) were used as controls.
Reaction Mix (10 or 20 μL) was quickly added to each well immediately following addition of enzyme via automated liquid handlers and incubated 1-1.5 h at 22° C. The 20 μL enzymatic reactions were stopped with 50 μL of stop mix (50 mM EDTA, 4.0 mg/mL Streptavidin SPA beads in Standard Dulbecco's PBS (without Mg^2+ and Ca^2+), 50 μM ATP) per well. The 10 μL reactions were stopped with 10 μL of stop mix (50 mM EDTA, 3.0 mg/mL Streptavidin-coupled SPA Imaging Beads (“LeadSeeker”) in Standard Dulbecco's PBS (without Mg^2+ and Ca^2+), 50 μM ATP) per well. Plates were sealed with clear plastic seals, spun at 500×g for 1 min or settled overnight, and counted in Packard TopCount for 30 seconds/well (regular SPA) or imaged using a Viewlux imager (LeadSeeker SPA). Signal above background (EDTA controls) was converted to percent inhibition relative to that obtained in control (DMSO-only) wells.

[2] = test system: H460; test: Methylene Blue Cell Growth Inhibition Assay, H460; format: cell-based; details: Homo sapiens, NCI-H460, 72 h, read-out: MEB H460 IC50
Description: (§1) Normal human foreskin fibroblasts (HFF), human colon (HCT116, RKO), lung (H460, A549) and breast (MCF7) tumor cell lines were cultured in high glucose DMEM (Life Technologies) containing 10% fetal bovine serum (FBS) at 37° C. in a humidified 5% CO2, 95% air incubator. Cells were harvested using trypsin/EDTA, counted using a haemocytometer, and plated in 100 μL of culture media per well, at the following densities, in a 96-well tissue culture plate (Falcon 3075): HFF 5,000 cells/well, HCT116 3,000 cells/well, RKO 2,500 cells/well, H460 2,500 cells/well, A549 5,000 cells/well, MCF7 4,000 cells/well. The next day, compounds were diluted in low glucose DMEM containing 100 μg/mL gentamicin, at twice the final required concentration, from 10 mM stock solutions in DMSO. 100 μL/well of these dilutions were added to the 100 μL of media currently in the assay plates. Medium containing 0.6% DMSO was added to control wells. The final concentration of DMSO in all wells was 0.3%. Cells were incubated at 37° C., 5% CO2 for 72 h. Medium was removed by aspiration. Cell biomass was estimated by staining cells with 80 μL per well methylene blue (Sigma M9140, 0.5% in 50:50 ethanol:water), and incubation at room temperature for 30-60 min. Stain was removed by aspiration and the plates rinsed by immersion in water, then air-dried. To release stain from the cells, 100 μL of solubilization solution was added (1% N-lauroyl sarcosine, Sodium salt, Sigma L5125, in PBS), and plates were shaken gently for about 30 min. Optical density at 620 nm was measured on a microplate reader. Percent inhibition of cell growth was calculated relative to vehicle treated control wells. Concentration of compound that inhibits 50% of cell growth (IC50) was interpolated using nonlinear regression (Levenberg-Marquardt) and the equation, y=Vmax*(1−(x/(K+x)))+Y2, where “K” was equal to the IC50.

[3] = test system: A549; test: Methylene Blue Cell Growth Inhibition Assay, A549; format: cell-based; details: Homo sapiens, 72 h, read-out: MEB A549 IC50
Description: as §1

[4] = test system: MX-1; test: Methylene Blue Cell Growth Inhibition Assay, MX-1; format: cell-based; details: Homo sapiens, MX1, 72 h, read-out: MEB MX-1 IC50
[5] = test system: Normal human foreskin fibroblasts (HFF); test: Methylene Blue Cell Growth Inhibition Assay, HFF; format: cell-based; details: Fibroblast, 72 h, read-out: MEB HFF IC50
Description: as §1

T1 sequence (P53350 21-346): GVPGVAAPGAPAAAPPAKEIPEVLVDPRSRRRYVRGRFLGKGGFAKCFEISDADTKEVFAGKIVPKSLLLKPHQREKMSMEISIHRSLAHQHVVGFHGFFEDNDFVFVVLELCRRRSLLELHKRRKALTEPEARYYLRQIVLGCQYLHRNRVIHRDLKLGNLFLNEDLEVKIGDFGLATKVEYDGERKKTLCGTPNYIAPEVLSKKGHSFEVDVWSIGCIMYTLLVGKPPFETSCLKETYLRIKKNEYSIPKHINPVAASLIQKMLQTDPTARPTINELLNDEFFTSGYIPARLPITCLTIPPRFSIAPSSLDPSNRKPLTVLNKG

IC50 [1] [nM] | Compound | IC50 [2] [nM] | IC50 [3] [nM] | IC50 [4] [nM] | IC50 [5] [nM]
< 10 | C[C@@H](Oc1cc(-n2cnc3cc(-c4ccc(N5CCNCC5)nc4)ccc32)sc1C(N)=O)c1ccccc1C(F)(F)F [Example 1, 5-{5-[6-(1-piperazinyl)-3-pyridinyl]-1H-benzimidazol-1-yl}-3-({(1R)-1-[2-(trifluoromethyl)phenyl]ethyl}oxy)-2-thiophenecarboxamide] | 100 to 1000 | 100 to 1000 | 100 to 1000 | > 1000
< 10 | C[C@@H](Oc1cc(-n2cnc3cc(-c4ccc(N5CCNCC5)nc4)ccc32)sc1C(N)=O)c1ccccc1Cl [Example 7, 3-{[(1R)-1-(2-Chlorophenyl)ethyl]oxy}-5-{5-[6-(1-piperazinyl)-3-pyridinyl]-1H-benzimidazol-1-yl}-2-thiophenecarboxamide] |  |  |  | 
 | C[C@@H](Oc1cc(-n2cnc3cc(-c4cnn(C)c4)ccc32)sc1C(N)=O)c1ccccc1Cl [Example 9, 3-{[(1R)-1-(2-Chlorophenyl)ethyl]oxy}-5-[5-(1-methyl-1H-pyrazol-4-yl)-1H-benzimidazol-1-yl]-2-thiophenecarboxamide] | < 100 | < 100 | < 100 | 100 to 1000
